Structures can show the parent of a compound that is named as a salt.
Experiments:
[1] = test system: pain threshold of the mouse; assay: Hot plate test (acute thermal stimulus); assay type: in vivo; settings: for HOT PLATE TEST, 15 min / HOT PLATE TEST, 30 min / HOT PLATE TEST, 45 min / HOT PLATE TEST, 60 min / HOT PLATE TEST, Pre-test: mice
[2] = test system: osteoarthritis induced pain (MIA) in the rat; assay: Paw pressure test, osteoarthritis induced pain (intra-articular monosodium iodoacetate); assay type: in vivo; settings: for PAW PRESSURE, AFTER TREATMENT (15 min) / PAW PRESSURE, AFTER TREATMENT 30 min / PAW PRESSURE, Pre-test: MIA rats
Protocol: At the same doses of 10 and 30 mg kg^−1 per os, the racemic mixture under study was also found to be effective in reversing the pain threshold reduction induced by the intra-articular Injection of monoiodide acetate at a dose of 2 mg in a 25 μl volume (osteoarthritis model). In this case the effect is statistically significant up to 45 minutes after administration at the lower dose and up to 60 minutes at the three-fold dose.

[3] = test system: oxaliplatin induced hyperalgesia in the rat; assay: Paw pressure test, oxaliplatin-induced hyperalgesia; assay type: in vivo; settings: oxaliplatin rats
[4] = test system: spontaneous motility and exploratory activity of the mouse; assay: Hole-board test; assay type: in vivo
From the text: (§1) In particular, in the case of the rotarod, the number of falls from the rotating rod progressively decreases with repeated falls. This confirms that the observed anti-hyperalgesic effects are not due to a change in the animal's behaviour.

[5] = test system: acetic acid induced writhes in mice; assay: Abdominal writhing test (acetic acid 0.6%); assay type: in vivo, mouse
Protocol: The 10 mg kg^−1 per os dose was also found to be effective.

[6] = test system: hyperalgesia induced in the rat by loose ligation of the sciatic nerve; assay: Paw pressure test, rat mononeuropathy (loose ligation of the sciatic nerve); assay type: in vivo
Protocol: In particular, a racemic mixture of the compounds of formula (I) in the form of sodium salt, in which the stereogenic centre deriving from camosine is in the L configuration, was subjected to in vivo pharmacological tests which have enabled their surprising analgesic effects to be discovered.
The observed effect is greater, albeit slightly, than that obtained by tramadol 100 mg kg^−1 per os and pregabalin 200 mg kg^−1 per os, in the same experimental model.

[7] = test system: motor coordination of the mouse; assay: Rotarod test; assay type: in vivo
From the text: as §1

[8] = 30 mg kg^−1 per os, 30 min before the test

Structure (SMILES): O=C(CCCCC1CCSS1)NCCC(=O)NC(Cc1cnc[nH]1)C(=O)O (racemic) (as salt: sodium) [Compound 2]
- melting point: > 213 °C (dec.)

Structure (SMILES): O=C(CCCCC1CCSS1)NCCC(=O)NC(Cc1cnc[nH]1)C(=O)O (racemic) [Compound 2]
- HOT PLATE TEST, 15 min ([1]; 1 mg/kg per os): 18.7 ± 2.7
- HOT PLATE TEST, 30 min ([1]; 1 mg/kg per os): 25.1 ± 2.7
- HOT PLATE TEST, 45 min ([1]; 1 mg/kg per os): 14.0 ± 2.0
- HOT PLATE TEST, 60 min ([1]; 1 mg/kg per os): 15.7 ± 2.6
- HOT PLATE TEST, Pre-test ([1]; 1 mg/kg per os): 15.7 ± 0.8
- HOT PLATE TEST, 15 min ([1]; 10 mg/kg per os): 25.9 ± 2.8
- HOT PLATE TEST, 30 min ([1]; 10 mg/kg per os): 22.3 ± 2.6
- HOT PLATE TEST, 45 min ([1]; 10 mg/kg per os): 19.3 ± 1.9
- HOT PLATE TEST, 60 min ([1]; 10 mg/kg per os): 17.4 ± 0.8
- HOT PLATE TEST, Pre-test ([1]; 10 mg/kg per os): 15.3 ± 0.9
- HOT PLATE TEST, 15 min ([1]; 30 mg/kg per os): 29.7 ± 2.8
- HOT PLATE TEST, 30 min ([1]; 30 mg/kg per os): 26.0 ± 2.7
- HOT PLATE TEST, 45 min ([1]; 30 mg/kg per os): 20.3 ± 2.9
- HOT PLATE TEST, 60 min ([1]; 30 mg/kg per os): 18.7 ± 2.1
- HOT PLATE TEST, Pre-test ([1]; 30 mg/kg per os): 15.7 ± 1.3
- rise of the pain threshold ([1]; dose range between 1 and 30 mg kg^−1 per os): able to raise the pain threshold in a dose-dependent manner
- PAW PRESSURE, AFTER TREATMENT (15 min) ([2]; 10 mg/kg p.o.): 49.3 ± 2.5 g
- PAW PRESSURE, AFTER TREATMENT 30 min ([2]; 10 mg/kg p.o.): 45.3 ± 3.9 g
- PAW PRESSURE, Pre-test ([2]; 10 mg/kg p.o.): 24.5 ± 2.1 g
- PAW PRESSURE, AFTER TREATMENT (15 min) ([2]; 30 mg/kg p.o.): 59.1 ± 3.3 g
- PAW PRESSURE, AFTER TREATMENT 30 min ([2]; 30 mg/kg p.o.): 54.7 ± 3.6 g
- PAW PRESSURE, Pre-test ([2]; 30 mg/kg p.o.): 24.4 ± 2.5 g
- time after administration up to which the effect is statistically significant ([2]; lower dose (10 mg kg^−1 per os)): up to 45 minutes
- time after administration up to which the effect is statistically significant ([2]; three-fold dose (30 mg kg^−1 per os)): up to 60 minutes
- PAW PRESSURE TEST, AFTER TREATMENT 15 min ([3]; 10 mg/kg per os): 34.6 ± 3.1^ g
- PAW PRESSURE TEST, AFTER TREATMENT 30 min ([3]; 10 mg/kg per os): 36.7 ± 3.5^ g
- PAW PRESSURE TEST, AFTER TREATMENT 45 min ([3]; 10 mg/kg per os): 31.9 ± 3.5 g
- PAW PRESSURE TEST, AFTER TREATMENT 60 min ([3]; 10 mg/kg per os): 26.9 ± 2.8 g
- PAW PRESSURE TEST, Pre-test ([3]; 10 mg/kg per os): 23.8 ± 3.6 g
- PAW PRESSURE TEST, AFTER TREATMENT 15 min ([3]; 30 mg/kg per os): 43.6 ± 3.9 g
- PAW PRESSURE TEST, AFTER TREATMENT 30 min ([3]; 30 mg/kg per os): 48.9 ± 3.6 g
- PAW PRESSURE TEST, AFTER TREATMENT 45 min ([3]; 30 mg/kg per os): 41.6 ± 3.6 g
- PAW PRESSURE TEST, AFTER TREATMENT 60 min ([3]; 30 mg/kg per os): 31.7 ± 3.3 g
- PAW PRESSURE TEST, Pre-test ([3]; 30 mg/kg per os): 22.9 ± 3.5 g
- change of behavioural parameters: spontaneous motility and exploratory activity (hole-board) ([4]; 30 mg kg^−1 per os): does not alter the behavioural parameters
- No. of inspections ([4]; 30 mg/kg per os, mice): 37.8 ± 7.5
- No. of movements ([4]; 30 mg/kg per os, mice): 30.3 ± 7.7
- no. of writhes ([5]; 1 mg kg^−1 per os, 30 min before the test): 28.5 ± 2.8
- no. of writhes ([5]; 10 mg kg^−1 per os, 30 min before the test): 21.8 ± 3.1
- no. of writhes ([5]; 30 mg kg^−1 per os with naloxone 1 mg kg^−1 i.p. 15 min before): 13.6 ± 3.0
- no. of writhes [5, 8]: 12.7 ± 2.6
- antagonism of the analgesia by naloxone ([5]; 30 mg kg^−1 per os, naloxone 1 mg kg^−1 i.p.): not antagonized by the opioid antagonist naloxone
- onset of the effect after administration ([6]; 10 mg/kg per os): 15 min
- time up to which the effect remained unchanged ([6]; 10 mg/kg per os): up to 45 minutes
- PAW PRESSURE, AFTER TREATMENT (15 min) ([6]; 10 mg/kg per os, left paw): 69.5 ± 4.4 g
- PAW PRESSURE, BEFORE TREATMENT ([6]; 10 mg/kg per os, left paw): 61.9 ± 3.4 g
- reversal of hyperalgesia ([6]; 10 mg/kg per os, ligation 14 days earlier): able to reverse, in a statistically significant manner
- PAW PRESSURE, AFTER TREATMENT (15 min) ([6]; 10 mg/kg per os, right paw): 48.3 ± 3.5 g
- PAW PRESSURE, BEFORE TREATMENT ([6]; 10 mg/kg per os, right paw): 25.2 ± 3.3 g
- PAW PRESSURE, AFTER TREATMENT (15 min) ([6]; 30 mg/kg per os, left paw): 81.6 ± 3.1 g
- PAW PRESSURE, BEFORE TREATMENT ([6]; 30 mg/kg per os, left paw): 59.2 ± 3.8 g
- PAW PRESSURE, AFTER TREATMENT (15 min) ([6]; 30 mg/kg per os, right paw): 66.3 ± 3.3 g
- PAW PRESSURE, BEFORE TREATMENT ([6]; 30 mg/kg per os, right paw): 24.8 ± 3.2 g
- change of behavioural parameters: motor coordination (rotarod) ([7]; 30 mg kg^−1 per os): does not alter the behavioural parameters
- FALLS IN 30 SEC, 15 min ([7]; 30 mg/kg per os, mice, 15 min): 3.9 ± 0.3
- FALLS IN 30 SEC, 30 min ([7]; 30 mg/kg per os, mice, 30 min): 1.3 ± 0.3
- FALLS IN 30 SEC, 45 min ([7]; 30 mg/kg per os, mice, 45 min): 0.8 ± 0.2
- FALLS IN 30 SEC, Pre-test ([7]; 30 mg/kg per os, mice, pre-test): 5.2 ± 0.3

Structure (SMILES): CC(C)Cc1ccc(C(C)C(=O)O)cc1 (stereo not drawn) [IBUPROFEN, ibuprofen, reference compound]
- no. of writhes [5, 8]: 20.3 ± 2.2
- no. of writhes ([5]; 100 mg kg^−1 per os, 30 min before the test): 13.5 ± 2.0

Structure (SMILES): CC(C)C[C@H](CN)CC(=O)O [PREGABALIN, pregabalin, reference compound]
- PAW PRESSURE, AFTER TREATMENT (15 min) ([6]; 200 mg/kg per os, left paw): 70.4 ± 3.5 g
- PAW PRESSURE, BEFORE TREATMENT ([6]; 200 mg/kg per os, left paw): 57.3 ± 3.5 g
- PAW PRESSURE, AFTER TREATMENT (15 min) ([6]; 200 mg/kg per os, right paw): 58.2 ± 3.1 g
- PAW PRESSURE, BEFORE TREATMENT ([6]; 200 mg/kg per os, right paw): 26.3 ± 3.0 g

Structure (SMILES): COc1cccc(C2(O)CCCCC2CN(C)C)c1 (stereo not drawn) [TRAMADOL, tramadol, reference compound]
- PAW PRESSURE, AFTER TREATMENT (15 min) ([6]; 100 mg/kg per os, left paw): 72.3 ± 3.0^ g
- PAW PRESSURE, BEFORE TREATMENT ([6]; 100 mg/kg per os, left paw): 58.3 ± 3.1 g
- PAW PRESSURE, AFTER TREATMENT (15 min) ([6]; 100 mg/kg per os, right paw): 55.8 ± 2.5 g
- PAW PRESSURE, BEFORE TREATMENT ([6]; 100 mg/kg per os, right paw): 25.7 ± 2.2 g
